Results: US6827926B2, “Metallotetrapyrrolic photosensitizing agents for use in photodynamic therapy” (Miravant Pharmaceuticals, Inc., priority 2001, dated 2004)
Like-named read-outs stand apart in the source and are kept apart here.

What was measured:
[1] = test system: normal skin of CD Hairless male rats; assay type: in vivo, rat
Description: We tested metallo- and metal-free tetrapyrroles systemically (see following section) for normal skin response in relation to the pharmacodynamic distribution of the photosensitizers in CD hairless rats. The skin of CD hairless rats are poorly developed, often referred to as hyperkeratotic, with various sized cystic hair follicles containing concentric lamellar accumulations of keratinaceous material, which are often associated with enlarged sebaceous glands. It quickly became apparent that gallium tetrapyrroles induced a marked clearing of the hyperkeratotic lesions in the treatment areas on the hairless rats. In fact, this clearing could be induced without necrosis of the skin. No other metallotetrapyrrole type produced such effects. This observation led us to assess the metallotetrapyrrolic compounds for skin restructuring effects both topically and systemically and for their ability to reduce hair growth in the following animal models.
Photosensitizer normal skin response as well as skin healing response, was evaluated using CD Hairless male rats. Photosensitizers were administered in an liposomal egg yolk phospholipid formulation at 1, 1.5 and 2 μmol/kg body weight formulation per dose group as a single bolus intravenous injection given through a marginal tail vein using a 27 gauge needle and a 1 cc tuberculin syringe. Normal skin responses were evaluated by irradiating several spots on the skin of the rat with a 532 nm laser (150 mW/cm^2, 150J, 1 cm diameter) at 1, 6, 24, 48, and 96 hrs post injection. Normal skin responses were evaluated and documented. The time at which the last spot is observed at the concentration injected is reported in the far right hand column in Tables 3, 4, 5 and 6. Skin samples were taken for histological evaluation at days 1, 10, 20 and 22 post light treatment. Rats were housed under normal lighting and all study procedures involving the test article were conducted under light filtered through blue and green Roscolox light filters to prevent photoactivation or degradation of the drug.

[2] = test system: V79 (Chinese Hamster Lung Fibroblasts) cells; assay: In vitro cytotoxicity assay (light EC50, Alamar blue); assay type: cell-based; conditions: Table 3 porphyrins, 24 h drug incubation, 532 nm, 1.25 J/cm^2, read-out: In Vitro EC50 Light
How it was run: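 V79 cells in phenol-free 5% FBS/DMEM exposed 24 h to photosensitizer at final 0.01–5.0 μM, six replicates, then washed and light-treated, with a dark plate as control. Survival by Alamar blue after 24 h dark incubation, read at 570/600 nm.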

[3] = test system: normal uninjured rat carotid arteries (medial and adventitial cell populations); assay: In vivo rat carotid artery acellularity after PDT; set-up: species or system Sprague Dawley rats; conditions: Table 3; drug dose 1 μMol; 50 J/cm^2; 3 days post treatment
Method: The acute effects of metallated photosensitizers, in response to light activation, to cause depletion of cell populations in the medial and adventitial layers of vessels was measured in normal uninjured rat carotid arteries. […] Shortly before the light treatment, the rats were anaesthetized with 3.5% isoflurane (Abbott Laboratories, IL, USA) and the femoral region of the right leg was shaved and cleaned. […] A direct arteriotomy was performed and a light balloon catheter ([…] Medical Technologies, Inc) was introduced into the vessel and advanced retrogradely into a non-manipulated region of the left common carotid artery via the abdominal aorta. […] After light treatment and removal of the catheter, the right femoral artery was tied off and the skin wound was closed. Rats were sacrificed three days post treatment as this corresponds to the known peak time that vascular cells, e.g., VSMC and myofibroblasts, proliferate and migrate in response to an injury. The area spanning both left and right carotid arteries and surrounding tissue was harvested, fixed, embedded in paraffin and sectioned. The tissues were stained with Hematoxylin and Eosin (Fisher Scientific, PA) and examined by light microscopy to histologically assess the cell population density in the medial and adventitial layers of the PDT-treated vessel wall. […] Metallo azaporphyrins with Ga, Zn, Al, Sn were excited at 575 nm, while Pt azaporphyrins were excited at 532 nm.

[4] = Table 3, time of last skin spot observed post injection, 1 μmol, 532 nm laser

Structure (SMILES)	Normal skin Response (1 μmol) ([1]; rat, in vivo)	EC50 [2]	Max % rat Artery Accelularity [3]	Normal skin Response (1 μmol) [1, 4]
COC(=O)CCC1=C(C)c2cc3[n-]c(cc4nc(cc5[n-]c(cc1n2)c(CCC(=O)OC)c5C)C(CO)=C4C)c(CO)c3C.[Cl-].[Ga+3] [Example 40, Gallium Chloride 3,8-hydroxymethyl deuteroporphyrin dimethyl ester]	–	600 nM	5%	6 h
C=CC1=C(C)c2cc3[n-]c(cc4nc(cc5[n-]c(cc1n2)c(C)c5CCC(=O)OC)C(CCC(=O)OC)=C4C)c(C)c3C=C.[Cl-].[Ga+3] [Example 42, Gallium Chloride Protoporphyrin Dimethyl Ester]	–	480 nM	70%	6 h
CCC1=C(C)C2=NC1=Cc1c(C)c(CC)c3[n]1[Sn]([Cl])([Cl])[n]1c(c(C)c(CCCC(=O)OC)c1=CC1=NC(=C3)C(C)=C1CCCC(=O)OC)=C2 [Example 45, Tin(IV) Dichloride 8,13-diethyl-3,7,12,17-tetramethylporphyrin-2,18-di(butanoic acid methyl ester)]	–	1500 nM	20%	24 h
CCCOC(=O)CCCC1=C(C)C2=Cc3c(CC)c(C)c4[n]3[Ga]([Cl])[n]3c(c(C)c(CCCC(=O)OCCC)c3=CC1=N2)=CC1=NC(=C4)C(CC)=C1C [Example 50, Gallium 8,13-diethyl-3,7,12,17-tetramethylporphyrin-2,18-di(butanoic acid propyl ester)]	–	400 nM	80%	48 h
CCOC(=O)CCCCC1=C(C)c2cc3[n-]c(cc4nc(cc5[n-]c(cc1n2)c(CCCCC(=O)OCC)c5C)C(C)=C4CC)c(C)c3CC.[Cl-].[In+3] [Example 52, Indium Chloride 8,13-diethyl-3,7,12,17-tetramethylporphyrin-2,18-di(pentanoic acid ethyl ester)]	48 h	50 nM	75%	–

Continued, in another order:

Normal skin Response (1 μmol) ([1]; rat, in vivo)	Structure (SMILES)	EC50 [2]	Max % rat Artery Accelularity [3]	Normal skin Response (1 μmol) [1, 4]
24 h	CC1=Cc2cc3[n-]c(cc4nc(cc5[n-]c(cc1n2)c(C)c5CCC(=O)OCC(F)(F)F)C(CCC(=O)OCC(F)(F)F)=C4C)cc3C.[Cl-].[Ga+3] [Example 38, Gallium Chloride Deuteroporphyrin di (2,2,2-trifluoroethylester)]	400 nM	80%	–
6 h	COC(=O)CCC1=C(C)c2cc3[n-]c(cc4nc(cc5[n-]c(cc1n2)c(CCC(=O)OC)c5C)C(Br)=C4C)c(Br)c3C.[Cl-].[Ga+3] [Example 39, Gallium Chloride 3,8-dibromodeuteroporphyrin dimethyl ester]	400 nM	75%	–
48 h	COC(=O)CCC1=C(C)C2=Cc3c(C)c(CN(C)C)c4[n]3[Pt][n]3c(c(C)c(CCC(=O)OC)c3=CC1=N2)=CC1=NC(=C4)C(C)=C1CN(C)C [Example 41, Platinum 3,8-Bis(dimethylaminomethyl) deuteroporphyrin dimethyl ester]	200 nM	0%	–
24 h	CCOC(=O)CCCCC1=C(C)C2=Cc3c(CC)c(C)c4[n]3[Sn]([Cl])([Cl])[n]3c(c(C)c(CCCCC(=O)OCC)c3=CC1=N2)=CC1=NC(=C4)C(CC)=C1C [Example 51, Tin(IV)dichloride 8,13-diethyl-3,7,12,17-tetramethylporphyrin-2,18-di(pentanoic acid ethyl ester)]	1700 nM	20%	–
24 h	CCOC(=O)CCCCC1=C(C)C2=Cc3c(CC)c(C)c4[n]3[Al-2]35([Cl])[n]6c(c(C)c(CCCCC(=O)OCC)c6=CC1=[N+]23)=CC1=[N+]5C(=C4)C(CC)=C1C [Example 54, Aluminum Chloride 8,13-diethyl-3,7,12,17-tetramethylporphyrin-2,18-di(pentanoic acid ethyl ester)]	4000 nM	0%	–
